{
  "source": "paper PMC10778976",
  "about": "“BAY-3827 and SBI-0206965: Potent AMPK Inhibitors That Paradoxically Increase Thr172 Phosphorylation” (International Journal of Molecular Sciences, 2023)",
  "experiment": "Pharmacokinetic study in mice, blood levels by LC:MS",
  "format": "in vivo, NOD-SCID mice",
  "settings": "10 mg/kg oral gavage after 1-aminobenzotriazole 50 mg/kg",
  "experimental": "All experiments with live animals were approved in advance by the Ethical Review Committee of the University of Dundee in accordance with the UK Animal (Scientific Procedures) Act 1986. Two female mice of the NOD-SCID strain were obtained from Charles River Laboratories, UK. The animals were maintained under a 12 h light/12 h dark cycle. The animals were allowed ad libitum access to food (RM1; Special Diet Services, UK) and water. Temperature and relative humidity were maintained between 20 and 24 °C and 45 and 65%, respectively. All animals received a minimum of 14 days acclimatization prior to the start of the study. 1-Aminobenzotriazole was dissolved on the day of dosing in Milli-Q ultrapure water at a concentration of 10 mg/mL and dosed via oral gavage at a dose level of 50 mg/kg. BAY-3827 was suspended in 0.5% hydroxypropylmethylcellulose (Methocel K15M Premium USP/EP; Colorcon) in water, at a concentration of 2 mg/mL. The BAY-3827 formulation was dosed via oral gavage at a dose level of 10 mg/kg, 30 min after the administration of 1-aminobenzotriazole. The animals were observed regularly after dose administration. […]\nA Waters Acquity Performance Liquid Chromatography coupled to a Waters Xevo TQ-S tandem mass spectrometer was used for the quantification of BAY-3827, using donepezil hydrochloride as an internal standard. […]\nCalibration samples, QC samples, blanks, double blanks, and study samples were extracted through protein precipitation. […] The resultant supernatant from the calibration samples, QCs, double blanks, and blanks (200 µL) and study samples (80 µL) was then transferred to HPLC glass vials containing Milli-Q water (100 µL or 40 µL, respectively) to reduce the solvent strength ready for UHPLC/MS analysis.\nThe sample concentrations were determined via a linear regression (weighting: 1/x) on the calibration samples using Waters TargetLynx application (v4.2). […] The lower limit of quantification (LLoQ) was determined as the analyte response with ≥three times the analyte response of the blanks (plasma with internal standard but not analyte). […]",
  "data": [
    {"smiles": "CCc1ccccc1C(=O)Nc1n[nH]c2c(C)c(F)c(C3C(C#N)=C(C)N(C)C(C)=C3C#N)cc12", "note": "[BAY-3827]", "values": [
      {"measurement": "blood concentration", "setting": "after 4–8 h", "result": "20 to 30", "unit": "nM"},
      {"measurement": "peak blood concentration (mean)", "setting": "at 60 min", "result": "90 nM and ≈ 90 nM"},
      {"measurement": "concentration at 8 h", "setting": "female, NOD-SCID, mouse, whole blood, after 8 h", "result": 20, "unit": "nM"}
    ]}
  ]
}
